The record followed here is US20020037559A1, “PROCESS FOR PRODUCING N-PROTECTED D-PROLINE DERIVATIVES” (priority 1996, published 2002).

For assay [1], the system named is N-acyl-L-proline acylase. The experiment in a line: Inducers of N-acyl-L-proline acylase, resting cells tested against N-Z-L-proline and N-Z-D-proline. It counts as cell-based, Arthrobacter sp. HSZ5. The settings on record: for Induction of the enzymatic activity (N-acyl-L-proline acylase): 1 g/l added to minimal medium with fructose 5 g/l and L-glutamate 2 g/l, proline detected by HPLC. As to the method: Arthrobacter sp. HSZ5 was grown in minimal medium (Example 1) using fructose (5 g/l) as the C source and L-glutamate (2 g/l) as the N source.

Assay [2] concerns N-acyl-L-proline acylase of Arthrobacter sp. HSZ5. The experiment in a line: Effect of product inhibition on the activity of the N-acyl-L-proline acylase. It counts as cell-based. The settings on record: for Inhibition of the enzymatic activity of N-acyl-L-proline acylase: cells pre-incubated 30 minutes (30° C., pH 6.4) with product, then 30° C., pH 6.5, 50 g/l N-Z-L-proline; for Manner of inhibition: from dependence of inhibition on concentration. On the procedure: Arthrobacter sp. HSZ5 was grown (30° C., 120 rpm) in the medium described in Table 1 using fructose (5 […]) as the C or N source. After reaching the desired cell density, the cells were harvested by centrifugation, washed in sodium chloride solution (0.9%) and finally also resuspended in the latter. […] As the 100% value, the result of the batch at pH=7.0 was employed. d) Effect of product inhibition on the activity of the N-acyl-L-proline acylase of Arthrobacter sp. HSZ5 cells having N-acyl-L-proline acylase activity were prepared as described under 9a). […] As the 100% value, the results of the batch was employed here which had been incubated without addition of one of the products.

Assay [3] deals with Arthrobacter sp. HSZ5. The experiment in a line: Enzymatic hydrolysis of N-Z-DL-proline by resting cells. The settings on record: after 60 minutes; N-Z-DL-proline 50 g/l, OD650=30, 30° C., pH 7.0, HPLC. It counts as cell-based. As to the method:
a) Arthrobacter sp. […] The cells were harvested and washed as described previously. The resting cells (OD650=30) were incubated at 30° C. with N-Z-DL-proline (50 g/l) under pH stasis (pH 7.0) and with stirring.

Assay [4] relates to Bacillus simplex K2. The experiment in a line: Growth using N-protected amino acids as the sole N source. It counts as cell-based. The settings on record: minimal medium, fructose 5 g/l as C source, N source 5 g/l, 30° C., 120 rpm. As to the method: (§1) Arthrobacter sp. HSZ5, Alcaligenes xylosoxidans ssp. denitrificans HSZ17, Agrobacterium/Rhizobium HSZ30, Bacillus simplex K2, Alcaligenes piechaudii K4 and Pseudomonas putida […] were grown (30° C., 120 rpm) in the medium described in Table 1 using fructose (5 g/l) as the C source. As the sole N source (5 g/l), in each case various N-protected amino acids were added. On reaching a cell density of OD650>0.5, the batch was assessed as positive.

Assay [5] deals with Pseudomonas putida K32. The assay is described as above. It counts as cell-based. The settings on record: minimal medium, fructose 5 g/l as C source, N source 5 g/l, 30° C., 120 rpm. On the procedure:
as §1

For assay [6], the system named is Arthrobacter sp. HSZ5. The description is as above. It counts as cell-based. The settings on record: minimal medium, fructose 5 g/l as C source, N source 5 g/l, 30° C., 120 rpm. As to the method: as §1
For assay [7], the system named is Agrobacterium/Rhizobium HSZ30. The description is as above. It counts as cell-based. The settings on record: minimal medium, fructose 5 g/l as C source, N source 5 g/l, 30° C., 120 rpm. On the procedure: as §1
Assay [8] relates to N-acyl-L-proline acylase. The experiment in a line: Substrate specificity of N-acyl-L-proline acylase. It counts as biochemical, Arthrobacter sp. HSZ5. From the text:
The enzymes according to the invention, the N-acyl-L-proline acylases, can be obtained, for example, by customary expert disruption of the described microorganism cells, preferably the enzymes are obtained from Arthrobacter sp. HSZ5 (DSM 10329). For this, for example, the ultrasound, French press or lysozyme method can be used. The enzymes are characterized by the following properties:
N-acyl-L-proline acylase, characterized by the following properties:

Assay [9] has as its system Alcaligenes piechaudii K4. The experiment in a line: Growth using N-protected amino acids as the sole N source. It counts as cell-based. The settings on record: minimal medium, fructose 5 g/l as C source, N source 5 g/l, 30° C., 120 rpm. As to the method:
as §1

The test system of assay [10] is Alcaligenes xylosoxidans ssp. denitrificans HSZ17. Described as above. The settings on record: minimal medium, fructose 5 g/l as C source, N source 5 g/l, 30° C., 120 rpm. It counts as cell-based. On the procedure: as §1
The test system of assay [11] is Arthrobacter sp. HSZ5. The experiment in a line: Biotransformation of N-Z-DL-proline in 450 l fermenter. It counts as cell-based. The settings on record: pH 7.5-8.5, 30° C. The source says: d) Arthrobacter sp. […] The enzymatic activity was then induced by addition of 4 kg of 50% (w/w) N-Z-DL-proline solution. […] The cells were removed by ultracentrifugation from the 320 kg of culture finally obtained and an aliquot (1444 g) of the cell-free fermentation broth was worked up as described under 6a).

Each structure is given as a SMILES string. Entries after “also recorded” stand apart in the source; their conditions may differ.

In the case of `O=C(O)C1CCCN1C(=O)OCc1ccccc1` (racemic) [N-Z-DL-proline], the “Induction of the enzymatic activity (N-acyl-L-proline acylase)” value in [1] is “induced the desired enzymatic activity”.

Consider `O=C(O)[C@@H]1CCCN1` [L-proline], for which the “Inhibition of the enzymatic activity of N-acyl-L-proline acylase” value (shortened to “Inhibition … of N-acyl-L-proline acylase”) in [2] is listed as “no inhibition of the enzymatic activity at all even in high concentration”.

`O=C(O)[C@H]1CCCN1C(=O)OCc1ccccc1` [N-Z-D-proline, N-benzyloxycarbonyl-D-proline]: the “Hydrolysis by resting cells” value in assay [3] is given as “unchanged”. In addition, in assay [2], the “Inhibition … of N-acyl-L-proline acylase” value was “drastic lowering of the enzyme activity with increasing concentration” and the Manner of inhibition entry was “competitive inhibitor”. For the same compound, in [2] (listed as N-benzyloxycarbonyl-D-proline), the “Inhibition … of N-acyl-L-proline acylase” value is listed as “inhibitory action”.

For the compound `C[C@H](NC(=O)OCc1ccccc1)C(=O)O` [N-Z-L-alanine, N-benzyloxycarbonyl-L-alanine], the “Growth using N-protected amino acid as the sole N source” value (“Growth using N-protected amino acid” for short) is recorded as “+ (On reaching a cell density of OD650>0.5, the batch was assessed as positive)” in [4]; “+ (On reaching a cell density of OD650>0.5, the batch was assessed as positive)” in assay [5]; “+ (On reaching a cell density of OD650>0.5, the batch was assessed as positive)” in [6]; “+ (On reaching a cell density of OD650>0.5, the batch was assessed as positive)” in [7]. Further, in assay [8], the “Substrate specificity (hydrolysis by the enzyme)” value is given as “hydrolysed”.

For the compound `O=C(O)[C@@H]1CCCN1C(=O)OCc1ccccc1` [N-Z-L-proline, N-benzyloxycarbonyl-L-proline], the “Growth using N-protected amino acid” value was “+ (On reaching a cell density of OD650>0.5, the batch was assessed as positive)” in assay [4]; “+ (On reaching a cell density of OD650>0.5, the batch was assessed as positive)” in assay [5]; “+ (On reaching a cell density of OD650>0.5, the batch was assessed as positive)” in assay [9]; “+ (On reaching a cell density of OD650>0.5, the batch was assessed as positive)” in [6]; “+ (On reaching a cell density of OD650>0.5, the batch was assessed as positive)” in [10]; “+ (On reaching a cell density of OD650>0.5, the batch was assessed as positive)” in [7]. Moreover, the “Induction of the enzymatic activity (N-acyl-L-proline acylase)” value in assay [1] is “induced the desired enzymatic activity”. Further, in [1] (resting cells, tested against N-Z-L-proline and N-Z-D-proline), the “Acceptance as substrate by induced resting cells” value was “accepted as the substrate”. Moreover, the “Hydrolysis by resting cells” value in assay [3] is reported as “almost completely hydrolysed”. In addition, the “Maximal rate of hydrolysis” value in [11] is “about 12 g of N-Z-L-proline hydrolysed/l×h”.

`O=C(O)[C@@H]1CCC(=O)N1C(=O)OCc1ccccc1` [N-Z-L-pyroglutamate, N-benzyloxycarbonyl-L-pyroglutamate]: the “Growth using N-protected amino acid” value in [4] is “+ (On reaching a cell density of OD650>0.5, the batch was assessed as positive)”; in assay [5], “+ (On reaching a cell density of OD650>0.5, the batch was assessed as positive)”; in assay [9] it was “+ (On reaching a cell density of OD650>0.5, the batch was assessed as positive)”; in [6], “+ (On reaching a cell density of OD650>0.5, the batch was assessed as positive)”; in assay [10] it was “+ (On reaching a cell density of OD650>0.5, the batch was assessed as positive)”; in assay [7], “+ (On reaching a cell density of OD650>0.5, the batch was assessed as positive)”.

For `O=C(N[C@@H](CO)C(=O)O)OCc1ccccc1` [N-Z-L-serine], the “Growth using N-protected amino acid” value is recorded as “+ (On reaching a cell density of OD650>0.5, the batch was assessed as positive)” in assay [5] and “+ (On reaching a cell density of OD650>0.5, the batch was assessed as positive)” in assay [6].

`CN(CC(=O)O)C(=O)OCc1ccccc1` [N-Z-sarcosine]: the “Growth using N-protected amino acid” value in assay [6] is recorded as “+ (On reaching a cell density of OD650>0.5, the batch was assessed as positive)”.

Take `CC(=O)N1CCC[C@H]1C(=O)O` [N-acetyl-L-proline]: the “Growth using N-protected amino acid” value in assay [5] was “+ (On reaching a cell density of OD650>0.5, the batch was assessed as positive)”; in assay [6] it was “+ (On reaching a cell density of OD650>0.5, the batch was assessed as positive)”; in assay [10], “+ (On reaching a cell density of OD650>0.5, the batch was assessed as positive)”; in assay [7], “+ (On reaching a cell density of OD650>0.5, the batch was assessed as positive)”.

In the case of `O=C(O)[C@@H]1CCCN1C(=O)c1ccccc1` [N-benzoyl-L-proline], the “Growth using N-protected amino acid” value is “+ (On reaching a cell density of OD650>0.5, the batch was assessed as positive)” in assay [5] and “+ (On reaching a cell density of OD650>0.5, the batch was assessed as positive)” in assay [6].

With `CC(C)COC(=O)N1CCC[C@H]1C(=O)O` [N-isobutoxycarbonyl-L-proline], the “Growth using N-protected amino acid” value in assay [5] is “+ (On reaching a cell density of OD650>0.5, the batch was assessed as positive)”; in [9], “+ (On reaching a cell density of OD650>0.5, the batch was assessed as positive)”; in assay [6] it was “+ (On reaching a cell density of OD650>0.5, the batch was assessed as positive)”.

For `O=C(O)[C@@H]1CCCN1C(=O)Cc1ccccc1` [N-phenylacetyl-L-proline], the “Growth using N-protected amino acid” value is “+ (On reaching a cell density of OD650>0.5, the batch was assessed as positive)” in assay [9] and “+ (On reaching a cell density of OD650>0.5, the batch was assessed as positive)” in [6].

Regarding `O=C(O)CCC(=O)N1CCC[C@H]1C(=O)O` [N-succinyl-L-proline], in assay [5], the “Growth using N-protected amino acid” value is “+ (On reaching a cell density of OD650>0.5, the batch was assessed as positive)”.

On to `OCc1ccccc1` [benzyl alcohol], for which, in [2], the “Inhibition … of N-acyl-L-proline acylase” value is “drastic lowering of the enzyme activity with increasing concentration; also recorded: inhibitory action” and the Manner of inhibition result is listed as “non-competitive”.
